US20040214891A1, “Method for inhibiting pathogenic bacteria and fungi growth and microbicidal composition” (priority 2003, published 2004)

Legend:
bacteria on the skin [1] = assay: imprinting method with Rodac plates on dorsal skin of volunteers, solutions on gauze pads; format: in vivo, human; settings: 30 minutes
Text: In order to conduct further tests to ascertain the antibacterial activity of the formulation containing taurine bromamine and prepared by the method described above, the imprinting method was chosen with use of Rodac plates with an area of 25 cm^2. For the purposes of study a Scheadler Agar Base medium produced by the firm Dico, catalogue number 212189, was used with addition of 5% ram blood. The medium was poured steadily onto the Rodac plates in aseptic conditions until a convex meniscus appeared. Before being applied, the medium was kept in enclosed conditions within a fridge at a temperature of ca. +4° C. and was used in a time not exceeding 7 days from the date of its preparation.
Tests for the antibacterial activity of taurine bromamine were conducted by performing 5 imprints of the dorsal skin on time at each of the patients examined. The skin area, on which the tests were to be performed, was determined in advance and marked with the numbers 1-5. […]
At the site marked 1—a gauze pad saturated with 0.9% inj. solution of NaCl (Polfa Lublin), which was a control substance without antibacterial activity was applied to the skin. […] Wherever possible, all the cultivated colonies of relatively aerobic and anaerobic bacteria were counted, to provide a figure for the concentration per cm^2 of the skin. […]

bacteria tested = assay: bactericidal activity of TauBr compared with TauCl at pH above 7; format: cell-based
Propionibacterium acnes = assay: microbicidal activity of TauBr solution, incubation with bacteria then colony count; format: cell-based; settings: Cutibacterium acnes, 0.5 h, 30 minutes incubation at room temperature, range tested 1-1000 μM, read-out: inhibitory concentration (MIC)
Experimental: (§1) For research purposes, two bacterial strains commonly found on the human skin were chosen: Propionibacterium acnes (causing acne) and Staphylococcus epidermides (being a part of physiological flora of the skin). Selected microorganisms were lyophilized and kept at room temperature. To prepare strain cultures for immune research the lyophilisate was dissolved in 0.5 ml of 0.9% NaCl solution. The mixture was stirred and seeded on a growth medium. Incubation was conducted in anaerobic conditions at 37° C. for 48-72 hrs. A suspension of bacteria at a concentration of 5×10^9 CFU/ml was then prepared.
(§2) In order to assess the microbicidal activity of the TauBr solution, the Proponibacterium acnes and the Staphylococcus epidermides bacteria were incubated in closed tubes with TauBr solution. The range of concentrations tested was 1-1000 μM. The incubation was conducted at room temperature for 30 minutes. When this process was completed, bacteria were seeded onto a growth medium. After an appropriate period of time the number of developed colonies were counted. Next, estimation of the susceptibility of the Proponibacterium acnes and Staphylococcus epidermides bacteria to the agent tested [TauBr] was determined.

[2] = system: Staphylococcus epidermidis; assay: as above; format: cell-based; settings: 0.5 h, 30 minutes incubation at room temperature, range tested 1-1000 μM, read-out: inhibitory concentration (MIC)
Experimental: as §1, §2

bacteria on the skin [3] = assay: imprinting method on skin of volunteers, gel, cream and powder preparations; format: in vivo, human; settings: above 5 mM taurine bromamine; for example Staphylococcus epidermides
Experimental: Further studies of the antibacterial activity of taurine bromamine were conducted using a gel, a cream and a powder. In these tests, applications with a semisolid consistency and plastic features were made, called hereinafter, pharmaceutical or cosmetic preparations or compositions, particularly a taurine bromamine solution in an ethyl-cellulose gel with pH 5-pH 7, a cetomacrogol cream with pH 5-pH 7 and a powder suspension in a taurine bromamine solution.
The powder suspension in taurine bromamine solution was prepared on a base of liquid powder changing the proportions of the components by weight. The suspension consisted of, by weight: 14.0-60.0% of 10 mM Taurine bromamine solution, 10.0-24.0% of talc, 14.0-40.0% of glycerol, 5.0-30.0% of distilled water and 0.5-2.0% of menthol. The constituents of the suspension were stirred thoroughly until an homogenous dispersion of the solid phase was obtained. […]
The preparations were left on the skin area for 30 minutes and then the plates were pressed down so that the site exposed to the activity of the various substances was imprinted centrally on the plate. […] Wherever it was possible, all cultivated colonies of relatively aerobic bacteria and anaerobic bacteria were counted, giving their occurrence per 1 cm^2 of the skin. […]

For `O=S(=O)(O)CCNBr` [TauBr, N-bromo taurine], the “bacterial concentration on skin after treatment” value (bacteria on the skin [1]; 5 mM solution in buffer pH 7, decrease from uncountable level of ca 10^4 CFU/cm^2) was 10^1-10^2 CFU/cm^2, the “number of bacteria on the skin area” value (bacteria on the skin [1]; 4-7 mM solution in buffer pH 5-pH 7, all patients) was “considerable diminution” and the “selective bactericidal properties (variable susceptibility of strains)” value (bacteria tested) was “Variable susceptibility of the strains”. For the same compound, the “bactericidal activity relative to TauCl” value (bacteria tested; especially at pH above 7) was “much stronger than TauCl”, the bacteria destroyed (bacteria tested; pH above 7) was 99% and the MIC (Propionibacterium acnes) was under 32 µM. The MIC [2] was over 125 µM and the “effect on bacterial flora of normal skin” value (bacteria on the skin [3]) was “all the bacterial flora is destroyed”.
In the case of `O=S(=O)(O)CCNCl` [TauCl, N-chloro taurine, reference compound], the “selective bactericidal properties (variable susceptibility of strains)” value (bacteria tested) is reported as “no such selective bactericidal properties” and the bactericidal properties (bacteria tested; pH above 7, subcytotoxic concentrations for mammalian cells) is reported as “no bactericidal properties”.
